According to patent publication EP2061765B1, “Serine-threonine protein kinase and PARP modulators” (Senhwa Biosciences, Inc., priority 2006, dated 2008):

How the values were obtained:
Assay in all cases: Cell proliferation assay (Alamar Blue)
Assay type in all cases: cell-based
[1] = system: HCT-116; conditions: Homo sapiens, 96 h, HCT-116 cells, four days;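 note: fluorescence of unreduced Alamar Blue read roughly 4 h after dye addition, with wells given medium instead of compound serving as controls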
[2] = system: MiaPaCa; conditions: Homo sapiens, MIA PaCa-2, 96 h, MiaPaCa cells, four days
Experimental: (§1) A representative cell-proliferation assay protocol using Alamar Blue dye (stored at 4°C, use 20ul per well) is described hereafter. 96-well plate setup and compound treatment • a. Split and trypsinize cells. • b. Count cells using hemocytometer. • c. Plate 4,000-5,000 cells per well in 100 µl of medium and seed into a 96-well plate according to the following plate layout. Add cell culture medium only to wells B10 to B12. Wells B1 to B9 have cells but no compound added. [formula] [formula] • d. Add 100 µl of 2X drug dilution to each well in a concentration shown in the plate layout above. At the same time, add 100 µl of media into the control wells (wells B10 to B12). Total volume is 200 µl/well. • e. Incubate four (4) days at 37°C, 5% CO2 in a humidified incubator. • f. Add 20µl Alamar Blue reagent to each well. • g. Incubate for four (4) hours at 37°C, 5% CO2 in a humidified incubator. • h. Record fluorescence at an excitation wavelength of 544nm and emission wavelength of 590nm using a microplate reader.
(§2) In the assays, cells are cultured with a test compound for approximately four days, the dye then is added to the cells and fluorescence of […] dye is detected after approximately four hours. Different types of cells can be utilized in the assays (e.g., HCT-116 human colorectal carcinoma cells, PC-3 human prostatic cancer cells and MiaPaca human pancreatic carcinoma cells). Anti-proliferative effects of representative compounds are provided hereafter.

[3] = system: Jurkat; conditions: Homo sapiens, 96 h, Jurkat cells, four days
Experimental: as §1, §2

Compound | IC50 [1] [µM] | IC50 [2] [µM] | IC50 [3] [µM]
COCCNc1ncc2c(n1)c(Nc1ccccc1)nc1cc(C(=O)O)ccc12 [drawing 320] | > 10 | 3.2 | 5.8
O=C(O)c1ccc2c(c1)nc(Nc1ccccc1)c1nc(NCCO)ncc12 [drawing 321] | > 10 | 16.2 | 26.1
O=C(O)c1ccc2c(c1)nc(Nc1ccccc1)c1nc(NCCCO)ncc12 [drawing 322] | > 10 | 11.9 | 7.9
O=C(O)c1ccc2c(c1)nc(Nc1ccccc1)c1nc(NC3CCNCC3)ncc12 [drawing 323] | > 10 | 14.4 | 18.9
CCN(CC)CCNc1ncc2c(n1)c(Nc1ccccc1)nc1cc(C(=O)O)ccc12 [drawing 324] | > 10 | 1.45 | 13.1
O=C(O)c1ccc2c(c1)nc(Nc1ccccc1)c1nc(NCCN3CCOCC3)ncc12 [drawing 325] | > 10 | 1.69 | 5.7
O=C(O)c1ccc2c(c1)nc(Nc1ccccc1)c1nc(NCCCN3CCOCC3)ncc12 [drawing 326] | > 10 | 1.36 | 2.18
C#Cc1cccc(Nc2nc3cc(C(=O)O)ccc3c3cnc(NCCC)nc23)c1 [drawing 328] | > 10 | 2.32 | 2.67
C#Cc1cccc(Nc2nc3cc(C(=O)O)ccc3c3cnc(NC4CCNCC4)nc23)c1 [drawing 330] | > 10 | 8.62 | 9.55
C#Cc1cccc(Nc2nc3cc(C(=O)O)ccc3c3cnc(NCCCN4CCOCC4)nc23)c1 [drawing 331] | > 10 | 2.26 | 3.69
O=C(O)c1ccc2c(c1)nc(Nc1cccc(C(F)(F)F)c1)c1nc(NC3CC3)ncc12 [drawing 341] | – | 0.65 | 3.13
CCNc1ncc2c(n1)c(Nc1cccc(Cl)c1)nc1cc(C(=O)O)ccc12 [drawing 342] | – | 0.92 | 3.06
O=C(NC1CC1)c1ccc2c(c1)nc(Nc1cccc(C(F)(F)F)c1)c1nc(NC3CC3)ncc12 [drawing 365] | > 10 | – | 3.92
CC(C)OC(=O)Nc1ccc2c(c1)nc(Nc1cccc(C(F)(F)F)c1)c1nc(NC3CC3)ncc12 [drawing 370] | > 10 | – | 1.16

The next lines start with the values.

IC50 [1] [µM] | IC50 [2] [µM] | IC50 [3] [µM] | Compound
> 10 | – | – | c1ccc(Nc2nc3cc(-c4nnn[nH]4)ccc3c3cnccc23)cc1
6.9 | – | – | N#Cc1ccc2c(c1)nc(Nc1ccccc1)c1ccncc12
> 10 | – | – | Cc1noc(-c2ccc3c(c2)nc(Nc2ccccc2)c2ccncc23)n1
1.71 | 2.92 | – | COC(=O)c1ccc2c(c1)nc(Cl)c1ncncc12
> 10 | > 10 | – | COC(=O)c1ccc2c(c1)nc(Nc1cccc(Cl)c1)c1ccncc12
9.56 | > 10 | – | COC(=O)c1ccc2c(c1)nc(Nc1ccccc1)c1nc(SC)ncc12
0.97 | 2.82 | – | COC(=O)c1ccc2c(c1)nc(Nc1ccccc1)c1nc(S(C)(=O)=O)ncc12
4.06 | > 10 | – | CNc1ncc2c(n1)c(Nc1ccccc1)nc1cc(C(=O)OC)ccc12
4.28 | 4.05 | – | OCc1ccc2c(c1)nc(Nc1cccc(Cl)c1)c1ccncc12
1.94 | 0.68 | 2.42 | O=C(O)c1ccc2c(c1)nc(Nc1ccccc1)c1nc(NC3CC3)ncc12 [drawing 318]
> 10 | 2.99 | 4.53 | CCCNc1ncc2c(n1)c(Nc1ccccc1)nc1cc(C(=O)O)ccc12 [drawing 319]
7.3 | 1.2 | 1.27 | C#Cc1cccc(Nc2nc3cc(C(=O)O)ccc3c3cnc(NC4CC4)nc23)c1 [drawing 327]
8.05 | 1 | 0.94 | C#Cc1cccc(Nc2nc3cc(C(=O)O)ccc3c3cnc(NCCOC)nc23)c1 [drawing 329]
4.69 | 2.34 | 1.29 | C#Cc1cccc(Nc2nc3cc(C(=O)O)ccc3c3cnc(NC)nc23)c1 [drawing 332]
